According to PubChem BioAssay AID712 (Emory University Molecular Libraries Screening Center, 2007):
pIC50: −log10 of the molar value. Calls of active or inactive are those of the source. How the calls were made is not given here.

What follows are compounds tested against Heat shock protein HSP 90-alpha (Homo sapiens) (UniProt P07900) (assay: Hsp90 blockade concentration-response – dose response (AID 712)). Settings: Hsp90 inhibition assay.

Row | Structure (SMILES) | pIC50 | IC50
1 | CC(=O)Oc1cc2c(C(=O)NCCN3CCOCC3)c(C)oc2c2ccccc12 | 4.71 | 
2 | CCOc1ccc(S(=O)(=O)Nc2ccc3c(c2)OCO3)c2cccnc12 | 4.80 | 
3 | CCSCCOC(=O)C1=C(C)NC(=O)NC1c1ccccc1 (stereo not given) |  | > 50 µM (inactive)
4 | Nc1ccc(Cc2ccccc2)c(O)c1 |  | > 50 µM (inactive)
5 | COc1ccc(N2CSC3=C(C#N)C(c4ccc(OC)c(OC)c4)CC(=O)N3C2)c(OC)c1 (stereo not given) |  | > 50 µM (inactive)
6 | O=C(c1sc2ccccc2c1Cl)N(Cc1ccco1)C1CCS(=O)(=O)C1 (stereo not given) |  | > 50 µM (inactive)
7 | Nc1cc(=O)[nH]c(SCC(=O)c2ccc3c(c2)OCO3)n1 |  | > 50 µM (inactive)
8 | CCOC(=O)c1c(C)[nH]c2ccc(O)cc12 |  | > 50 µM (inactive)
9 | Nc1cc(N)nc(SCC(=O)Nc2nonc2N)n1 |  | > 50 µM (inactive)
10 | Nc1c(S(=O)(=O)c2cccc(Cl)c2)c2nc3ccccc3nc2n1/N=C/c1ccc(O)c(O)c1 |  | > 50 µM (inactive)
11 | Oc1cccc2cccnc12 |  | > 50 µM (inactive)
12 | CC(=O)Oc1cc2c(C(=O)NCCCN3CCOCC3)c(C)oc2c2ccccc12 | 5.33 | 
13 | Nc1nonc1N1CCCCC1 |  | > 50 µM (inactive)
14 | CCOc1cc(N2CCOCC2)c(OCC)cc1NC1=NCCCCC1 | 4.89 | 
15 | COc1ccc(-c2nc(CS(=O)CC(=O)NCc3ccccn3)c(C)o2)cc1 (stereo not given) | 4.72 | 
16 | Nc1ccc2ncccc2c1N | 5.47 | 
17 | COc1ccc(S(=O)(=O)Nc2ccc3c(c2)OCO3)cc1OC |  | inactive
18 | Nc1cc(N)c(OCC(F)(F)F)cc1OCC(F)(F)F |  | inactive
19 | CC(=O)c1ccc(NC(=O)CSc2nnc(Cc3cccn3C)n2-c2ccc(F)cc2)cc1 |  | > 50 µM (inactive)
20 | COc1ccc(NS(=O)(=O)c2ccccc2)c(OC)c1 |  | > 50 µM (inactive)
21 | CC(=O)Oc1cc2oc(=O)cc(C)c2cc1OC(C)=O |  | > 50 µM (inactive)
22 | Cn1c(=O)c2c(nc(CN3CCc4ccccc4C3)n2CCCO)n(C)c1=O |  | > 50 µM (inactive)
23 | COc1cc(N)c2nccc(OCc3ccccc3)c2c1 |  | > 50 µM (inactive)
24 | O=C1c2ccccc2-c2onc3ccc(NCCCn4ccnc4)c1c23 | 6.55 | 
25 | Nc1cc(N)nc(SCCOc2ccccc2F)n1 |  | > 50 µM (inactive)
26 | CCOC(=O)C1=C(C)OC(N)=C(C(=O)OCC)C1c1cccnc1 (stereo not given) |  | > 50 µM (inactive)
27 | O=S(=O)(Nc1ccc(O)c(-c2c(O)ccc3ccccc23)c1)c1ccccc1 | 4.89 | 
28 | O=C1C2C3C=CC(C3)C2C(=O)N1CNc1ccc(O)cc1 (stereo not given) | 4.83 | 
29 | CCCCn1c(NC(=O)c2ccccc2)c(C#N)c2nc3ccccc3nc21 | 4.57 | 
30 | Nc1cc(N)nc(SCC(=O)Nc2nncs2)n1 |  | > 50 µM (inactive)
